From PubChem BioAssay AID256 (DTP/NCI, 2004)
Where “and” joins values, the source holds several entries; their conditions need not be identical. Identical values can stand only once. Toxic doses and inconclusive results are not listed.

System: CD2F1 mice, L1210 leukemia ip, survival T/C
Experiment: NCI In Vivo Anticancer Drug Screen. Data for tumor model L1210 Leukemia (intraperitoneal) in CD2F1 (CDF1) mice
Settings: higher = longer survival
Procedure, shortened: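 In this screen, transplantable tumors were grown in mice given either the compound or its vehicle. Results were expressed as the treated measurement relative to the control measurement.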

[1] = endpoint: mean survival time, dose: 100.0 mg/kg/injection, schedule: Q04DX003 (ip), vehicle: saline
[2] = endpoint: mean survival time, dose: 200.0 mg/kg/injection, schedule: Q04DX003 (ip), vehicle: saline
[3] = endpoint: mean survival time, dose: 400.0 mg/kg/injection, schedule: Q04DX003 (ip), vehicle: saline
[4] = endpoint: mean survival time, dose: 100.0 mg/kg/injection, schedule: Q01DX009 (ip), vehicle: saline with Tween-80
[5] = endpoint: mean survival time, dose: 200.0 mg/kg/injection, schedule: Q01DX009 (ip), vehicle: saline with Tween-80
[6] = endpoint: mean survival time, dose: 400.0 mg/kg/injection, schedule: Q01DX009 (ip), vehicle: saline with Tween-80
[7] = endpoint: mean survival time, dose: 100.0 mg/kg/injection, schedule: Q04DX003 (ip), vehicle: saline with Tween-80
[8] = endpoint: mean survival time, dose: 100.0 mg/kg/injection, schedule: Q01DX009 (ip), vehicle: saline
[9] = endpoint: mean survival time, dose: 200.0 mg/kg/injection, schedule: Q01DX009 (ip), vehicle: saline
[10] = endpoint: mean survival time, dose: 400.0 mg/kg/injection, schedule: Q01DX009 (ip), vehicle: saline
[11] = endpoint: mean survival time, dose: 200.0 mg/kg/injection, schedule: Q04DX003 (ip), vehicle: saline with Tween-80
[12] = endpoint: mean survival time, dose: 400.0 mg/kg/injection, schedule: Q04DX003 (ip), vehicle: saline with Tween-80

With CCOC(=O)C(CC)(OC(C)=O)C(=O)C[n+]1ccccc1 (stereo unspecified) the T/C (endpoint: mean survival time, dose: 100.0 mg/kg/injection, schedule: Q01DX001 (ip), vehicle: saline) was 108 % of control, the T/C [1] was 101 % of control and the T/C (endpoint: mean survival time, dose: 200.0 mg/kg/injection, schedule: Q01DX001 (ip), vehicle: saline) was 106 % of control. For the same molecule, the T/C [2] was 101 % of control, the T/C (endpoint: mean survival time, dose: 400.0 mg/kg/injection, schedule: Q01DX001 (ip), vehicle: saline) was 106 % of control and the T/C [3] was 101 % of control.
In the case of OC1CCCCCCCCCCC1C(O)(C(F)(F)F)C(F)(F)F (stereo unspecified), the T/C (endpoint: mean survival time, dose: 100.0 mg/kg/injection, schedule: Q01DX001 (ip), vehicle: saline with Tween-80) is reported as 93 % of control and 89 % of control, the T/C [4] is reported as 86 % of control and the T/C (endpoint: mean survival time, dose: 200.0 mg/kg/injection, schedule: Q01DX001 (ip), vehicle: saline with Tween-80) is reported as 89 % of control. The T/C [5] was 91 % of control, the T/C (endpoint: mean survival time, dose: 400.0 mg/kg/injection, schedule: Q01DX001 (ip), vehicle: saline with Tween-80) was 91 % of control and the T/C [6] was 97 % of control.
O=C(NCc1ccccc1)C1C2CC3OC(=O)C1C3C2 (stereo unspecified) was tested, and the T/C (endpoint: mean survival time, dose: 12.5 mg/kg/injection, schedule: Q04DX003 (ip), vehicle: saline with Tween-80) was 112 % of control, the T/C (endpoint: mean survival time, dose: 12.5 mg/kg/injection, schedule: Q04DX003 (ip), vehicle: saline) was 106 % of control and the T/C (endpoint: mean survival time, dose: 25.0 mg/kg/injection, schedule: Q04DX003 (ip), vehicle: saline with Tween-80) was 114 % of control. For the same molecule, the T/C (endpoint: mean survival time, dose: 25.0 mg/kg/injection, schedule: Q04DX003 (ip), vehicle: saline) was 108 % of control, the T/C (endpoint: mean survival time, dose: 50.0 mg/kg/injection, schedule: Q04DX003 (ip), vehicle: saline with Tween-80) was 114 % of control and the T/C (endpoint: mean survival time, dose: 50.0 mg/kg/injection, schedule: Q04DX003 (ip), vehicle: saline) was 110 % of control. For the same molecule, the T/C [7] was 114 % of control and the T/C [1] was 108 % of control.
For C/C(=C\C(=O)c1ccccc1)OB(F)F, the T/C [4] was 98 % of control and 100 % of control, the T/C [5] was 110 % of control and 100 % of control and the T/C [6] was 100 % of control.
In the case of CC(=O)OCC1OC(n2ccc(O)cc2=O)C(O)C1O (stereo unspecified), the T/C (endpoint: median survival time, dose: 44.0 mg/kg/injection, schedule: Q01DX009 (ip), vehicle: saline + alcohol) is reported as 160 % of control, the T/C (endpoint: median survival time, dose: 67.0 mg/kg/injection, schedule: Q01DX009 (ip), vehicle: saline + alcohol) is reported as 169 % of control and the T/C (endpoint: median survival time, dose: 100.0 mg/kg/injection, schedule: Q01DX009 (ip), vehicle: saline + alcohol) is reported as 172 % of control. For the same molecule, the T/C (endpoint: median survival time, dose: 150.0 mg/kg/injection, schedule: Q01DX009 (ip), vehicle: saline + alcohol) was 174 % of control.
Cc1noc(/N=C/c2cccc(Cl)c2)c1C was tested, and the T/C [1] was 96 % of control, the T/C [2] was 101 % of control and the T/C [3] was 101 % of control.
In the case of NC1=NCN(C2OC(CO)C(O)C2O)C(=O)N1 (stereo unspecified), the T/C (endpoint: mean survival time, dose: 1.56 mg/kg/injection, schedule: Q01DX009 (ip), vehicle: saline) is reported as 96 % of control, the T/C (endpoint: mean survival time, dose: 3.12 mg/kg/injection, schedule: Q01DX009 (ip), vehicle: saline) is reported as 113 % of control and 120 % of control and 93 % of control and the T/C (endpoint: mean survival time, dose: 3.13 mg/kg/injection, schedule: Q01DX009 (ip), vehicle: saline) is reported as 113 % of control. For the same molecule, the T/C (endpoint: mean survival time, dose: 6.25 mg/kg/injection, schedule: Q01DX009 (ip), vehicle: saline) was 96 % of control, the T/C (endpoint: mean survival time, dose: 12.5 mg/kg/injection, schedule: Q01DX009 (ip), vehicle: saline) was 89 % of control and the T/C (endpoint: mean survival time, dose: 25.0 mg/kg/injection, schedule: Q01DX009 (ip), vehicle: saline) was 90 % of control and 100 % of control. For the same molecule, the T/C (endpoint: mean survival time, dose: 50.0 mg/kg/injection, schedule: Q01DX009 (ip), vehicle: saline) was 110 % of control, the T/C (endpoint: mean survival time, dose: 50.0 mg/kg/injection, schedule: Q01DX009 (oral), vehicle: saline) was 96 % of control and the T/C [8] was 95 % of control. For the same molecule, the T/C (endpoint: mean survival time, dose: 100.0 mg/kg/injection, schedule: Q01DX009 (oral), vehicle: saline) was 110 % of control, the T/C [9] was 95 % of control and the T/C (endpoint: mean survival time, dose: 200.0 mg/kg/injection, schedule: Q01DX009 (oral), vehicle: saline) was 119 % of control. For the same molecule, the T/C [10] was 124 % of control, the T/C (endpoint: mean survival time, dose: 600.0 mg/kg/injection, schedule: Q01DX009 (ip), vehicle: saline) was 100 % of control and the T/C (endpoint: mean survival time, dose: 800.0 mg/kg/injection, schedule: Q01DX009 (oral), vehicle: saline) was 118 % of control. For the same molecule, the T/C (endpoint: median survival time, dose: 1.56 mg/kg/injection, schedule: Q01DX009 (ip), vehicle: saline) was 110 % of control, the T/C (endpoint: median survival time, dose: 32.0 mg/kg/injection, schedule: Q03HX008 (ip), vehicle: saline) was 124 % of control and the T/C (endpoint: median survival time, dose: 64.0 mg/kg/injection, schedule: Q01DX001 (oral), vehicle: saline) was 98 % of control. For the same molecule, the T/C (endpoint: median survival time, dose: 64.0 mg/kg/injection, schedule: Q01DX009 (oral), vehicle: saline) was 100 % of control, the T/C (endpoint: median survival time, dose: 64.0 mg/kg/injection, schedule: Q03HX008 (ip), vehicle: saline) was 124 % of control and the T/C (endpoint: median survival time, dose: 128.0 mg/kg/injection, schedule: Q03HX024 (oral), vehicle: saline) was 113 % of control. For the same molecule, the T/C (endpoint: median survival time, dose: 128.0 mg/kg/injection, schedule: Q04DX003 (oral), vehicle: saline) was 98 % of control, the T/C (endpoint: median survival time, dose: 256.0 mg/kg/injection, schedule: Q01DX001 (ip), vehicle: saline) was 124 % of control and the T/C (endpoint: median survival time, dose: 256.0 mg/kg/injection, schedule: Q01DX001 (oral), vehicle: saline) was 100 % of control. The T/C (endpoint: median survival time, dose: 256.0 mg/kg/injection, schedule: Q03HX008 (oral), vehicle: saline) was 118 % of control, the T/C (endpoint: median survival time, dose: 256.0 mg/kg/injection, schedule: Q04DX003 (oral), vehicle: saline) was 100 % of control and the T/C (endpoint: median survival time, dose: 512.0 mg/kg/injection, schedule: Q03HX008 (oral), vehicle: saline) was 124 % of control. The T/C (endpoint: median survival time, dose: 512.0 mg/kg/injection, schedule: Q04DX003 (oral), vehicle: saline) was 113 % of control, the T/C (endpoint: median survival time, dose: 1024.0 mg/kg/injection, schedule: Q01DX001 (oral), vehicle: saline) was 124 % of control and the T/C (endpoint: median survival time, dose: 1024.0 mg/kg/injection, schedule: Q01DX009 (ip), vehicle: saline) was 92 % of control and 98 % of control. For the same molecule, the T/C (endpoint: median survival time, dose: 1024.0 mg/kg/injection, schedule: Q01DX009 (sc), vehicle: saline) was 91 % of control.
COc1cc(OC)c(NC(=O)Nc2c(C)n(C)n(-c3ccccc3)c2=O)cc1Cl was tested, and the T/C (endpoint: mean survival time, dose: 12.5 mg/kg/injection, schedule: Q01DX009 (ip), vehicle: saline with Tween-80) was 91 % of control, the T/C (endpoint: mean survival time, dose: 25.0 mg/kg/injection, schedule: Q01DX009 (ip), vehicle: saline with Tween-80) was 97 % of control and the T/C (endpoint: mean survival time, dose: 50.0 mg/kg/injection, schedule: Q01DX009 (ip), vehicle: saline with Tween-80) was 93 % of control and 97 % of control. The T/C [5] was 89 % of control.
For O=C(c1ccccc1CO)N1CCOCC1, the T/C (endpoint: mean survival time, dose: 12.5 mg/kg/injection, schedule: Q04DX002 (ip), vehicle: saline) was 98 % of control, the T/C (endpoint: mean survival time, dose: 25.0 mg/kg/injection, schedule: Q04DX002 (ip), vehicle: saline) was 94 % of control and the T/C (endpoint: mean survival time, dose: 50.0 mg/kg/injection, schedule: Q04DX002 (ip), vehicle: saline) was 94 % of control.
For O=C(CC(CC(=O)C(c1ccccc1)c1ccccc1)c1ccccc1)C(c1ccccc1)c1ccccc1, the T/C (endpoint: mean survival time, dose: 12.5 mg/kg/injection, schedule: Q04DX002 (ip), vehicle: saline with Tween-80) was 93 % of control, the T/C (endpoint: mean survival time, dose: 25.0 mg/kg/injection, schedule: Q04DX002 (ip), vehicle: saline with Tween-80) was 90 % of control and the T/C [11] was 86 % of control. For the same molecule, the T/C [12] was 86 % of control.
CCCCCCCCCCCCCCCC1CCCC(C)N1 (stereo unspecified) was tested, and the T/C (endpoint: mean survival time, dose: 50.0 mg/kg/injection, schedule: Q04DX002 (ip), vehicle: saline with Tween-80) was 90 % of control and 105 % of control, the T/C (endpoint: mean survival time, dose: 100.0 mg/kg/injection, schedule: Q04DX002 (ip), vehicle: saline with Tween-80) was 87 % of control and the T/C (endpoint: mean survival time, dose: 200.0 mg/kg/injection, schedule: Q04DX002 (ip), vehicle: saline with Tween-80) was 87 % of control.
For N=c1c2ncn(C3CCCC3)c2ncn1Cc1ccc([N+](=O)[O-])cc1, the T/C (endpoint: mean survival time, dose: 75.0 mg/kg/injection, schedule: Q01DX001 (ip), vehicle: other) was 106 % of control.
For CCC[CH2][Sn]1([CH2]CCC)[O]C2C(CO)OC(n3ccc(N)nc3=O)C2[O]1 (stereo unspecified), the T/C (endpoint: mean survival time, dose: 0.78 mg/kg/injection, schedule: Q01DX009 (ip), vehicle: Klucel (hydroxypropylcellulose) (HPC)) was 116 % of control, the T/C (endpoint: mean survival time, dose: 1.56 mg/kg/injection, schedule: Q01DX005 (ip), vehicle: other) was 104 % of control and the T/C (endpoint: mean survival time, dose: 1.56 mg/kg/injection, schedule: Q01DX009 (ip), vehicle: Klucel (hydroxypropylcellulose) (HPC)) was 113 % of control. The T/C (endpoint: mean survival time, dose: 3.13 mg/kg/injection, schedule: Q01DX005 (ip), vehicle: other) was 104 % of control, the T/C (endpoint: mean survival time, dose: 6.25 mg/kg/injection, schedule: Q01DX005 (ip), vehicle: other) was 113 % of control and the T/C (endpoint: mean survival time, dose: 6.25 mg/kg/injection, schedule: Q01DX009 (ip), vehicle: Klucel (hydroxypropylcellulose) (HPC)) was 115 % of control.
In the case of O=C1N(C2CCCCC2)CC2C(c3ccccc3)NNC12O (stereo unspecified), the T/C [4] is reported as 103 % of control, the T/C [7] is reported as 97 % of control and the T/C [5] is reported as 90 % of control. The T/C [11] was 97 % of control, the T/C [6] was 100 % of control and the T/C [12] was 98 % of control.
For CC1CN(c2ccccc2)NC1=O (stereo unspecified), the T/C [8] was 104 % of control, the T/C [9] was 105 % of control and the T/C [10] was 102 % of control.
